According to publication PMC12090182, “Repurposing of the RIPK1-Selective Benzo[1,4]oxazepin-4-one Scaffold for the Development of a Type III LIMK1/2 Inhibitor” (ACS Chemical Biology, 2025):

Biological target: 468 kinases including some pathogenic mutants (Mycobacterium tuberculosis, UniProt P9WI81)
Test: biochemical
Type: binding

## CN1C(=O)[C@@H](N2CCc3c(nn(Cc4ccccc4)c3C(N)=O)C2=O)COc2cc(Cl)ccc21 [Compound 10, (S)-2-benzyl-6-(8-chloro-5-methyl-4-oxo-2,3,4,5-tetrahydrobenzo[b][1,4]oxazepin-3-yl)-7-oxo-4,5,6,7-tetrahydro-2H-pyrazolo[3,4-c]pyridine-3-carboxamide]
  Percent Control: 100%
